Patent publication US11242327B2, “Analgesic compounds” (RECURIUM IP HOLDINGS, LLC, priority 2017, dated 2022)

Experiments:
Assay type in all cases: in vivo
[1] = test system: male Sprague-Dawley rats; experiment: Osteoarthritis Pain Test (MIA, mechanical hyperalgesia); conditions: rat, oral once daily, 30 mg/kg
Procedure: Osteoarthritis pain was induced in non-fasted male Sprague-Dawley rats weighing 150-250 g by injecting 2 mg of monosodium iodoacetate (MIA) into the left knee joint. Mechanical hyperalgesia was measured using a digital Randall-Selitto device (dRS; IITC Life Sciences©; Woodland Hills, Calif.). Animals were allowed to acclimate to the testing room for a minimum of 15 minutes before testing. Animals were placed in a restraint sling that suspended the animal, leaving the hind limbs available for testing. The stimulus was applied to the knee joint by a blunt tip and pressure was applied gradually over approximately 10 seconds. Joint compression threshold values were recorded at the first observed nocifensive behavior (vocalization, struggle, or withdrawal). One reading per joint was taken at each time point, and a maximum stimulus cutoff of 500 grams was used to prevent injury to the animal. Mechanical hyperalgesia was assessed prior to MIA injection, and again 14 days later. After 14 days, test or control articles were administered once daily for 7 days with mechanical hyperalgesia assessed prior to dosing, 1, 2, and 4 hours post-dosing on days 0, 3, and 6. Test compounds were administered orally at concentrations of 3, 10, 30 or 100 mg/kg and celecoxib was administered orally at a concentration of 30 mg/kg. The control group received the vehicle (sterile water). After day 0, groups receiving the 100 mg/kg dose were reduced to a dose of 3 mg/kg. In Table 5, ‘A’ designates ≥375 grams of joint compression, ‘B’ designates ≥325 and <375 grams of joint compression, and ‘C’ designates <325 grams of joint compression.
The results provided in Table 5 are for oral administration in rats.

[2] = test system: male Sprague-Dawley rats; experiment: UVB Inflammatory Pain Test (thermal hyperalgesia); conditions: rat, oral, 30 mg/kg
Procedure: UVB irradiation to the surface of the hind paw was used to induce cutaneous inflammatory pain in non-fasted male Sprague-Dawley rats weighing 175-300 g. On Day −3, animals were restrained and the plantar surface of the left hind paw was exposed to 350 mJoules/cm^2 of UVB irradiation using a narrow band UVB light source (Daavlin®, Bryan, Ohio). Following UVB irradiation, animals were returned to their home cage. Thermal hyperalgesia was assessed prior to dosing and approximately 1, 2, and 4 hours after dosing on Day 0 using a radiant heat plantar test apparatus (IITC Life Sciences©; Woodland Hills, Calif.). Animals were placed in individual acrylic chambers on a glass platform warmed to 30±2° C. and allowed to acclimate to their surroundings for a minimum of 15 minutes before testing. The stimulus was presented to the plantar surface and the timer was activated. The stimulus intensity was set such that pre-injury paw withdrawal latencies were approximately 12-18 seconds. Paw withdrawal latency values were recorded at the first observed nocifensive behavior (paw withdrawal, flinching, biting and/or licking). Three paw withdrawal latencies were measured for each hind paw per time point. The mean of the 3 values was taken as the paw withdrawal latency for that time point. A maximum cutoff latency of 30 seconds was used to prevent injury to the animal. The mean and standard error of the mean (SEM) were determined for each paw for each treatment group at each time point. Test compounds were administered orally at concentrations of 3, 10, 30 or 100 mg/kg; celecoxib was administered orally at a concentration of 30 mg/kg; and acetaminophen was administered orally at a concentration of 300 mg/kg. The control group received the vehicle (sterile water). In Table 4, ‘A’ designates >8 seconds of paw withdrawal latency, ‘B’ designates >6 and <8 seconds of paw withdrawal latency, and ‘C’ designates <6 seconds of paw withdrawal latency.
The results provided in Table 4 are for oral administration in rats. […] Furthermore, while acetaminophen was dosed at 300 mg/kg, compounds of Formulae (Ie), (Ih) and (Ik), or a pharmaceutically acceptable salt of any of the foregoing, were dosed at 3 mg/kg, 10 mg/kg and 100 mg/kg.

[3] = test system: male Sprague-Dawley rats; experiment: Formalin Paw Test, rat, oral; conditions: 30 mg/kg; for Early Phase, seconds of paw licking: early/acute phase (0-10 minutes); for Late Phase, seconds of paw licking: late/tonic phase (10-35 minutes)
Procedure: One test compound or the vehicle was administered to each rat or mouse in each test group (8 rats or mice per group). Non-fasted male Sprague-Dawley rats weighing 200-225 g or non-fasted male ICR mice weighing 23±3 g were used. […] Responses were measured every 5 minutes after the formalin injection for 35 minutes. The results in Table 2 are for oral administration in rat and the results in Table 3 are for intraperitoneal administration in mouse. In Tables 2 and 3, 'A' designates <70 seconds of paw licking, 'B' designates >70 and <165 seconds of paw licking, and 'C' designates >165 seconds of paw licking.

| Compound | Early Phase, seconds of paw licking [3] | Late Phase, seconds of paw licking [3] | other results |
| --- | --- | --- | --- |
| Cc1ccc(-c2cc(C(F)(F)F)nn2-c2ccc(S(N)(=O)=O)cc2)cc1 [Celecoxib, reference compound] |  |  | joint compression threshold, Day 0, 1 h ([1]; Day 0, 1 h post-dosing): B (≥325 and <375 grams of joint compression); joint compression threshold, Day 0, 2 h ([1]; Day 0, 2 h post-dosing): A (≥375 grams of joint compression); joint compression threshold, Day 0, 4 h ([1]; Day 0, 4 h post-dosing): B (≥325 and <375 grams of joint compression); joint compression threshold, Day 3, 1 h ([1]; Day 3, 1 h post-dosing): C (<325 grams of joint compression); joint compression threshold, Day 3, 2 h ([1]; Day 3, 2 h post-dosing): A (≥375 grams of joint compression); joint compression threshold, Day 3, 4 h ([1]; Day 3, 4 h post-dosing): A (≥375 grams of joint compression); joint compression threshold, Day 6, 1 h ([1]; Day 6, 1 h post-dosing): B (≥325 and <375 grams of joint compression); joint compression threshold, Day 6, 2 h ([1]; Day 6, 2 h post-dosing): A (≥375 grams of joint compression); joint compression threshold, Day 6, 4 h ([1]; Day 6, 4 h post-dosing): A (≥375 grams of joint compression); paw withdrawal latency, 1 h ([2]; 1 h after dosing): A (>8 seconds of paw withdrawal latency); paw withdrawal latency, 2 h ([2]; 2 h after dosing): A (>8 seconds of paw withdrawal latency); paw withdrawal latency, 4 h ([2]; 4 h after dosing): A (>8 seconds of paw withdrawal latency) |
| Cl.NC12CC(c3ccc(C(F)(F)F)cc3)(C1)C2 [Compound 3, 3-(4-(trifluoromethyl)phenyl)bicyclo[1.1.1]pentan-1-amine hydrochloride] | A (<70 seconds of paw licking) | A (<70 seconds of paw licking) |  |
| COc1ccc(C23CC(N)(C2)C3)cc1.Cl [Compound 4, 3-(4-Methoxyphenyl)bicyclo[1.1.1]pentan-1-amine hydrochloride] | A (<70 seconds of paw licking) | A (<70 seconds of paw licking) |  |
| Cl.NC12CC(c3cccc(C(F)(F)F)c3)(C1)C2 [Compound 5] | A (<70 seconds of paw licking) | B (>70 and <165 seconds of paw licking) |  |
| CCNC12CC(C(F)(F)F)(C1)C2.Cl [Compound 8, N-Ethyl-3-(trifluoromethyl)bicyclo[1.1.1]pentan-1-amine hydrochloride] | A (<70 seconds of paw licking) | C (>165 seconds of paw licking) |  |
| Cl.OCCNC12CC(C(F)(F)F)(C1)C2 [Compound 9, 2-((3-(Trifluoromethyl)bicyclo[1.1.1]pentan-1-yl)amino)ethan-1-ol hydrochloride] | A (<70 seconds of paw licking) | C (>165 seconds of paw licking) |  |
| Cl.NC12CC(c3ccc(Cl)cc3)(C1)C2 [Compound 10, 3-(4-Chlorophenyl)bicyclo[1.1.1]pentan-1-amine hydrochloride] | A (<70 seconds of paw licking) | A (<70 seconds of paw licking) |  |
| Cl.NC12CC(c3ccnc(C(F)(F)F)n3)(C1)C2 [Compound 11, 3-(2-(Trifluoromethyl)pyrimidin-4-yl)bicyclo[1.1.1]pentan-1-amine hydrochloride] | A (<70 seconds of paw licking) | C (>165 seconds of paw licking) |  |
| Cl.NC12CC(c3nccc(C(F)(F)F)n3)(C1)C2 [Compound 12, 3-(4-(Trifluoromethyl)pyrimidin-2-yl)bicyclo[1.1.1]pentan-1-amine hydrochloride] | A (<70 seconds of paw licking) | C (>165 seconds of paw licking) |  |
| Cl.NC12CC(c3nc4cc(C(F)(F)F)ccc4s3)(C1)C2 [Compound 14, 3-(5-(trifluoromethyl)benzo[d]thiazol-2-yl)bicyclo[1.1.1]pentan-1-amine hydrochloride] | A (<70 seconds of paw licking) | C (>165 seconds of paw licking) |  |
| Cl.NC12CC(c3nc4cc(C(F)(F)F)ccc4o3)(C1)C2 [Compound 15, 3-(5-(Trifluoromethyl)benzo[d]oxazol-2-yl)bicyclo[1.1.1]pentan-1-amine hydrochloride] | A (<70 seconds of paw licking) | C (>165 seconds of paw licking) |  |
| Cl.NC12CC(c3nc4cc(Cl)ccc4o3)(C1)C2 [Compound 16, 3-(5-chlorobenzo[d]oxazol-2-yl)bicyclo[1.1.1]pentan-1-amine hydrochloride] | A (<70 seconds of paw licking) | C (>165 seconds of paw licking) |  |
| Cl.NC12CC(c3nc4cc(F)ccc4[nH]3)(C1)C2 [Compound 17, 3-(5-fluoro-1H-benzo[d]imidazol-2-yl)bicyclo[1.1.1]pentan-1-amine hydrochloride] | A (<70 seconds of paw licking) | C (>165 seconds of paw licking) |  |
| COc1cccc(C23CC(N)(C2)C3)c1.Cl [Compound 18, 3-(3-Methoxyphenyl)bicyclo[1.1.1]pentan-1-amine hydrochloride] | A (<70 seconds of paw licking) | B (>70 and <165 seconds of paw licking) |  |
| CC(F)(F)C12CC(N)(C1)C2.Cl [Compound 19, 3-(1,1-Difluoroethyl)bicyclo[1.1.1]pentan-1-amine hydrochloride] | A (<70 seconds of paw licking) | B (>70 and <165 seconds of paw licking) |  |
| CC(C)C(F)(F)C12CC(N)(C1)C2.Cl [Compound 20, 3-(1,1-Difluoro-2-methylpropyl)bicyclo[1.1.1]pentan-1-amine hydrochloride] | A (<70 seconds of paw licking) | C (>165 seconds of paw licking) |  |
| CC(C)=C(F)C12CC(N)(C1)C2.Cl [Compound 21, 3-(1-fluoro-2-methylprop-1-en-1-yl)bicyclo[1.1.1]pentan-1-amine hydrochloride] | A (<70 seconds of paw licking) | C (>165 seconds of paw licking) |  |
| Cl.NC12CC(c3ccccc3)(C1)C2 [Compound 22, 3-Phenylbicyclo[1.1.1]pentan-1-amine hydrochloride] | A (<70 seconds of paw licking) | B (>70 and <165 seconds of paw licking) |  |
